Test results published in US20170151266A1, “METHODS AND COMPOSITIONS FOR ENHANCED DRUG DELIVERY TO THE EYE AND EXTENDED DELIVERY FORMULATIONS” (THE REGENTS OF THE UNIVERSITY OF COLORADO, A BODY, priority 2011, published 2017).
Values joined by “and” are separate entries in the source; they are usually repeats but may differ in a detail not shown here. Equal entries are not always repeated. One block for each molecule: values may come before it.

Columns and labels:
[1] = Aqueous solubility (Solaq) listed in physicochemical property tables; conditions: pH 7.4, 25° C.
[2] = Pharmacokinetic model of budesonide succinate transport; parameters: species or system bovine; conditions: PK model, A to B in presence of inhibitor (FIG. 4A)
Text: Circles on left side (5 BSA; 6 B) represent the donor chamber whereas circles on right side (7 BSA; 8 B) represent the receiver chamber for BSA transport in A to B direction. 6 B and 8 B were included and represent budesonide formed/transported during the course of transport study. A separate compartment was included to account for the pro-drug/parent drug loss due to tissue absorption. K5>0 represents rate constant for drug loss into the tissue, K5>6 and K7>8 represent rate constants for pro-drug conversion into parent drug on donor and receiver side respectively. […] K5>7 Act represent active transport rate constant and contribution (0.5%) of active diffusion in BSA transport.
The model was developed in such a way that it accounted for transport of pro-drug from the donor to the receiver side, transport of parent drug formed in the donor chamber to the receiver side over the period of transport study, loss of pro-drug/drug into the tissues and any backward transport from the receiver to the donor side. The transport rate constants for parent drug and pro-drug were calculated from the cumulative percentage transport values. Rate constant for conversion of pro-drug to the parent drug was calculated from the percentage of the pro-drug and parent drug formed. Model was run with the dose amounts observed in the donor and receiver sides after 6 h transport studies. […]

[3] = Ex vivo transscleral delivery after posterior subconjunctival injection in euthanized rats; parameters: species or system Brown Norway (BN) rats
Procedure: All animals were handled according to the ARVO statement for the use of Animals in Ophthalmic and Vision Research. […] Drug suspensions were shaken before each posterior subconjunctival injection. Rats were divided into two groups. […] Twenty-five microliters of budesonide suspension was injected using a 30 G needle in the posterior subconjunctival space of one eye of each animal and the other eye was not treated. At the end of 1 h, eyes were enucleated and immediately frozen in dry ice and isopentane bath. All samples were stored at −80 ° C. until LCMS/MS analysis. […] At the end of 1 h, the eyes were enucleated and frozen in a similar manner as above until analysis. Periocular tissue samples were also collected from both the groups at the end of the study. Different ocular tissues including sclera, choroid-RPE, retina, and vitreous were isolated and analyzed for drug levels.

[4] = In vitro transscleral transport of budesonide/budesonide pro-drugs; type: in vitro ADME, bovine; conditions: sclera to RPE direction (A to B); 6 h; 37° C.
Text: Freshly excised bovine eyes were used in all studies. […] Equatorial region of the remaining sclera-choroid-[…]) was used as is for SCRPE transport studies. […] Isotonic assay buffer (pH 7.4) with the following composition was used during the entire tissue isolation procedure and transport study: […] Two hundred microliters of sample was collected from the receiver side at specific time intervals and replenished with fresh buffer. The drug/pro-drug content in the receiver and donor samples was analyzed using an LC-MS/MS method.

ARPE19 cells = conditions: at nanomolar concentrations, glucocorticoid-receptor mediated; cited from earlier work
[5] = In vivo delivery of bevacizumab in rats, ocular fluorophotometry after intravitreal injection; parameters: species or system rat; conditions: day 15
Procedure: Rats were anesthetized by intraperitoneal injection of ketamine (35 mg/kg)/xylazine (5 mg/kg) and once the rats were under anesthesia, betadine solution was applied on the eye surface, and intravitreal injections were made using a 30-G needle. […] Baseline fluorescence values of eyes were monitored before injecting the formulations. At each time point, three fluorometric scans were taken and the mean value was used.

[6] = In vitro transport across bovine cornea
Text: (§1) Freshly excised bovine eyes procured from a local slaughter house were used for all in vitro transport studies. Fatty or adherent tissue all around the eye is removed first. Cornea and conjunctiva were then removed. For isolation of sclera and choroid-RPE (CRPE), the anterior segment of the eye was removed with a circumferential cut below the limbus. The eye was cut into two halves along the geometric axis, a line joining the anterior pole (corneal center) and the posterior pole (center of the scleral curve), and the vitreous was removed. Neural retina was removed by exposing the eyecup to isotonic assay buffer at pH 7.4. Equatorial region of the remaining sclera-choroid-RPE (SCRPE) was used as is for SCRPE transport studies. All transport studies for celecoxib were performed in presence of 5% HP-β-CD. […] Drug solutions were prepared in the following manner: Celecoxib (100 μg/ml) in presence of 5% HP-β-CD was made after triturating celecoxib with HP-β-CD in a pestle-mortar followed by addition of assay buffer. The mixture was stirred for 24 h. Before use, the clear solution was filtered through 0.2 μ filter. […] All transport experiments were performed for 6 h at 37° C. Samples were collected at regular time intervals from the receiver side with replacement with fresh assay buffer (pH 7.4). Transport studies with all solutes were performed in A to B direction meaning outward to inward (eg. sclera towards choroid-RPE) movement of the solute was measured. […] Samples from all the transport studies were analyzed on LC-MS/MS.

[7] = In vitro transport across bovine conjunctiva
Text: Freshly excised bovine eyes procured from a local slaughter house were used for all in vitro transport studies. Fatty or adherent tissue all around the eye is removed first. Cornea and conjunctiva were then removed. For isolation of sclera and choroid-RPE (CRPE), the anterior segment of the eye was removed with a circumferential cut below the limbus. The eye was cut into two halves along the geometric axis, a line joining the anterior pole (corneal center) and the posterior pole (center of the scleral curve), and the vitreous was removed. Neural retina was removed by exposing the eyecup to isotonic assay buffer at pH 7.4. Equatorial region of the remaining sclera-choroid-RPE (SCRPE) was used as is for SCRPE transport studies. All transport studies for celecoxib were performed in presence of 5% HP-β-CD. […] Drug solutions were prepared in the following manner: Celecoxib (100 μg/ml) in presence of 5% HP-β-CD was made after triturating celecoxib with HP-β-CD in a pestle-mortar followed by addition of assay buffer. The mixture was stirred for 24 h. Before use, the clear solution was filtered through 0.2 μ filter. […] Transport studies with all solutes were performed in A to B direction meaning outward to inward (eg. sclera towards choroid-RPE) movement of the solute was measured. […] Samples from all the transport studies were analyzed on LC-MS/MS.

[8] = In vitro transport across bovine sclera-choroid-RPE (celecoxib series)
Text: as §1

[9] = for binding/association constant (K, Ka) with melanin: 1 mg/ml melanin suspension in PBS (pH 7.4), 37° C., celecoxib 2 μg/ml, pro-drugs 250 μg/ml
[10] = 10 μl eye drop, 2 mg/ml; 1 h
Procedure: At the end of 1 h, the animals were euthanized and the eyes were enucleated. Periocular tissue and plasma samples were collected.
Sample processing: Acetonitrile precipitation method was used for drug extraction from the tissues. Briefly, eyes from each eye drop study were dissected for tissue isolation. Tissues were homogenized in 250 μl water (pH 7.4 adjusted with 5 mM ammonium acetate) containing indoprofen as internal standard at a concentration of 500 ng/ml (1000 ng/ml stock was made). Similar volume of acetonitrile was added and mixed well by vortexing for 30 minutes. Samples were centrifuged at 15,000 rpm for 30 minutes. Supernatant was collected for LC-MS/MS analysis.
Total run time was 5.5 min.

[11] = tested on: blood retinal barrier leakage; conditions: diabetic rats; eye drops twice daily for 60 days; C-SA 0.2% w/v, C-SA-T 1.0% w/v
Procedure: The animals were divided into four groups.
Plasma samples were stored at −80° C.

[12] = tested on: blood retinal barrier leakage; conditions: diabetic rats; eye drops twice daily for 60 days; C-SA 0.2% w/v, C-SA-T 1.0% w/v; remark: listed apart in the source
Procedure: After overnight fasting for 12-16 h, an intraperitoneal injection of 30 mg/ml solution of streptozotocin in 10 mM citrate buffer (pH 4.5) was administered (60 mg/kg body weight) to induce diabetes. After 3-4 h of streptozotocin injection, animals were put on regular diet and 24 h after streptozotocin injection, blood sample (5-10 μl) was collected via tail vein. The blood glucose levels in the animals were determined with a glucose monitor (One Touch; Life Scan Inc., Milpitas, Calif.). Animals with blood glucose levels greater than 250 mg/dL were considered diabetic. The animals were divided into four groups. […] Treatment was started immediately after diabetes induction. […]
Retinal FITC-Dextran Leakage: BN rats from each group were used for the assessment of FITC-dextran leakage. […] The relative FITC-dextran fluorescence units in 1 ml of supernatant were measured using a spectrofluorometer set at an excitation wavelength of 483 nm and an emission wavelength of 538 nm. Fluorescence of blank PBS was also
measured for subtraction from each sample reading. Final concentration of FITC-dextran was expressed as μg/g tissue. […] 20 μ (˜20 mg) of plasma was diluted to 1 ml (50 times dilution) with PBS for quantification under the linear range of the standard samples. […] The amount of FITC-dextran leakage in to the ocular tissues was calculated using the following equation, after correcting for dilutions.

retinal leukostasis = conditions: diabetic rats; eye drops twice daily for 60 days; C-SA 0.2% w/v, C-SA-T 1.0% w/v
Procedure: After overnight fasting for 12-16 h, an intraperitoneal injection of 30 mg/ml solution of streptozotocin in 10 mM citrate buffer (pH 4.5) was administered (60 mg/kg body weight) to induce diabetes. After 3-4 h of streptozotocin injection, animals were put on regular diet and 24 h after streptozotocin injection, blood sample (5-10 μl) was collected via tail vein. The blood glucose levels in the animals were determined with a glucose monitor (One Touch; Life Scan Inc., Milpitas, Calif.). Animals with blood glucose levels greater than 250 mg/dL were considered diabetic. The animals were divided into four groups. […] Treatment was started immediately after diabetes induction. Both eyes were dosed twice daily for 60 days in group 2, 3 and 4 with their respective treatment. Animals in groups 2-4 were sacrificed at the end of 2 months. Normal animals in group 1 were sacrificed immediately after acclimatization in the animal facility. For each of the three assays, namely, FITC-Dextran leakage, vitreous-to-plasma protein ratio, and leukostasis, we used 4 animals from each of the four groups mentioned above.
BN rats from each group were used for the assessment of adherent leukocytes. At 1 hour after last dose on day 61, rats were sacrificed for ex-vivo retinal leukostasis assay. First, the animals were anesthetized with ketamine (80 mg/kg) and xylazine (12 mg/kg) administered intraperitoneally. […]

[13] = Group 2, 25 μl of 1 mg/ml suspension, posterior subconjunctival, 1 h
[14] = end of 6 h, 37° C., 100 μg/ml, celecoxib in 5% HP-β-CD

Molecule: CCCC1O[C@@H]2C[C@H]3[C@@H]4CCC5=CC(=O)C=C[C@]5(C)[C@H]4[C@@H](O)C[C@]3(C)[C@]2(C(=O)CO)O1 (stereo partly drawn) [Budesonide]
cumulative percentage transport [4]: 0.2% | VEGF secretion and mRNA expression (ARPE19 cells): capable of reducing | Solaq ([1]; Table 1): Budesonide (0.02) mg/ml

Molecule: Alexa-bevacizumab solution: Alexa Fluor 488 conjugated bevacizumab injected as solution (control)
Alexa-bevacizumab concentration in the vitreous [5]: 2.2 µg/mL

Molecule: Cc1ccc(-c2cc(C(F)(F)F)nn2-c2ccc(S(N)(=O)=O)cc2)cc1 [Celecoxib, reference compound]
Cumulative percent transport across bovine cornea [6, 14]: 0.017% | Transport across bovine conjunctiva [7, 14]: 3.9% | Transport across bovine sclera-choroid-RPE [8, 14]: approximately 0.1% | binding/association constant (K, Ka) with melanin [9]: 1.01×10^6 M^−1 and 1.01 E6 M^−1 | level in cornea, celecoxib compared with CSA [10]: higher than CSA | level in iris and CRPE, celecoxib compared with C-SA [10]: higher | level in periocular space, celecoxib compared with CSA [10]: lower than that of CSA | Solaq ([1]; Table 2): Celecoxib (0.005) mg/ml

Second part, led by results:

Solaq ([1]; Table 4): Ruboxistaurin (0.029) mg/ml
Molecule: CN(C)C[C@@H]1CCn2cc(c3ccccc32)C2=C(C(=O)NC2=O)c2cn(c3ccccc23)CCO1 [Ruboxistaurin]

contribution of active diffusion in BSA transport [2]: 0.5% | ex vivo drug level (pro-drug) in CRPE [3, 13]: 0.6 μg/g tissue | ex vivo drug level (pro-drug) in retina [3, 13]: 0.2 μg/g tissue | ex vivo drug level (pro-drug) in sclera [3, 13]: 1.9 μg/g tissue | ex vivo drug level (pro-drug) in vitreous [3, 13]: 0.05 μg/g tissue | ex vivo level of budesonide released from budesonide succinate in CRPE [3, 13]: 7.2 μg/g tissue | ex vivo level of budesonide released from budesonide succinate in retina [3, 13]: 2.2 μg/g tissue | ex vivo level of budesonide released from budesonide succinate in sclera [3, 13]: 11.0 μg/g tissue | ex vivo level of budesonide released from budesonide succinate in vitreous [3, 13]: 0.5 μg/g tissue | budesonide delivery in sclera, choroid-RPE and retina, higher with prodrug compared to plain drug budesonide ([3]; rat): 2-5 folds
Molecule: Succinic acid mono-budesonide ester [budesonide succinate]

Transport across bovine cornea, times higher than celecoxib [6]: ~25 times | reduction in transport across cornea with taurine as an inhibitor [6]: > 50% | Transport across bovine conjunctiva, times higher than celecoxib [7]: ~4 times | Transport across bovine sclera-choroid-RPE, times higher than celecoxib [8]: ~20 times | reduction in transport across SCRPE with taurine as an inhibitor [8]: > 50% | binding/association constant (K, Ka) with melanin [9]: 7.39×10^3 M^−1 and 7.93 E3 M^−1 | melanin binding, fold lower than that of celecoxib ([9]; ITC): ~130 fold
Molecule: Cc1ccc(-c2cc(C(F)(F)F)nn2-c2ccc(S(=O)(=O)NC(=O)CCC(=O)NCCS(=O)(=O)O)cc2)cc1 [C-SA-T, celecoxib succinamidic acid taurine]
average vitreous-to-plasma protein ratio [11]: 0.28±0.06 | retinal FITC-dextran leakage (mean± s.d.) [12]: 23.64 ± 4.20 µL/g/min | Mean retinal leukocyte count (retinal leukostasis): 47±10

binding/association constant (K, Ka) with melanin [9]: 8.89×10^3 M^−1 and 8.89 E3 M^−1
Molecule: Cc1ccc(-c2cc(C(F)(F)F)nn2-c2ccc(S(=O)(=O)NC(=O)CCC(=O)O)cc2)cc1 [C-SA, Celecoxib succinamidic acid]
retinal FITC-dextran leakage (mean± s.d.) [12]: 93.66 ± 37.08 µL/g/min | Mean retinal leukocyte count (retinal leukostasis): 95±12
